pEC50: −log10 of the molar value. Where a SMILES comes first, the peptide text is derived from it. [ ]: non-standard residue; d: D form. Cha = N[C@@H](CC1CCCCC1)C(=O)O; pGlu = O=C1CC[C@@H](C(=O)O)N1; dNle = CCCC[C@@H](N)C(=O)O; dNva = CCC[C@@H](N)C(=O)O
Tests used:
hAPJ = target: T1, hAPJ (Homo sapiens, UniProt P35414); test: hAPJ Calcium Flux Assay; type: cell-based; details: Chem-5 APJ stable cells, FLIPR calcium flux stimulation; read-out: hAPJ Ca^2+ Flux EC50
T1 sequence (P35414 1-380): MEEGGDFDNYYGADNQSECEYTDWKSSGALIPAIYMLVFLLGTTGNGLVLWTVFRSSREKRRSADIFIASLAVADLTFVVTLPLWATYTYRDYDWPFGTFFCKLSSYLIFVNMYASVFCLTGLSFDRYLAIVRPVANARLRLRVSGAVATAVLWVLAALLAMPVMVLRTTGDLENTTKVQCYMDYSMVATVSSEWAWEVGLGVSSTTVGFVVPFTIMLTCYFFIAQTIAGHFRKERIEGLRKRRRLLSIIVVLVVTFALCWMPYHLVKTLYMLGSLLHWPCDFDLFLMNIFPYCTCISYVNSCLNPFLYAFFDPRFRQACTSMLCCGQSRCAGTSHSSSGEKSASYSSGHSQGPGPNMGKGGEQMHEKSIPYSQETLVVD
Summary of the method: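 Chem-5 cells stably expressing APJ, loaded 1 h with Calcium 4 dye plus 2.5 mM probenecid at 37 °C. Peptides added at final […] in HBSS/HEPES/0.1% BSA, in triplicate.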

[1] = Surrogate Activity-Based Plasma Stability Assay; type: in vitro ADME; details: rat, Surrogate activity-based Plasma stability t½
Description: Stability half-life was then calculated by the formula, t½=0.693÷k Surrogate Activity-Based Plasma Stability Assay: […]
2) Calculate slope of value above and […]

SMILES	pEC50 (hAPJ)	half-life [1] [h]
CCCC[C@@H](NC(=O)[C@@H]1CCCN1C(=O)CNC(=O)[C@H](CCCCN)NC(=O)[C@@H](C)NC(=O)[C@@H](C)NC(=O)[C@H](CC(C)C)NC(=O)[C@H](CCCNC(=N)N)NC(=O)[C@@H]1CCCN1C(=O)[C@H](CCCNC(=N)N)NC(=O)[C@@H]1CCC(=O)N1)C(=O)N[C@H](C)C(=O)N[C@H](Cc1ccccc1)C(=O)O [Example 48, pE-R-P-R-L-a-a-K-G-P-nle-a-f-OH] ([pGlu]RPRL[dA][dA]KGP[dNle][dA][dF]-OH)	7.79	4.13
CCCC[C@@H](NC(=O)[C@@H]1CCCN1C(=O)CNC(=O)[C@H](CCCCN)NC(=O)[C@H](Cc1c[nH]cn1)NC(=O)[C@@H](C)NC(=O)[C@H](CC(C)C)NC(=O)[C@H](CCCNC(=N)N)NC(=O)[C@@H](C)NC(=O)[C@H](CCCNC(=N)N)NC(=O)[C@@H]1CCC(=O)N1)C(=O)N[C@H](C)C(=O)N[C@H](Cc1ccccc1)C(=O)O [Example 49, pE-R-a-R-L-a-H-K-G-P-nle-a-f-OH] ([pGlu]R[dA]RL[dA]HKGP[dNle][dA][dF]-OH)	6.21	> 16.7
CCCC[C@@H](NC(=O)[C@@H]1CCCN1C(=O)CNC(=O)[C@H](CCCCN)NC(=O)[C@@H](C)NC(=O)[C@H](CO)NC(=O)[C@H](CC(C)C)NC(=O)[C@H](CCCNC(=N)N)NC(=O)[C@@H]1CCCN1C(=O)[C@H](CCCNC(=N)N)NC(=O)[C@@H]1CCC(=O)N1)C(=O)N[C@H](C)C(=O)N[C@H](Cc1ccccc1)C(=O)O [Example 51, pE-R-P-R-L-S-a-K-G-P-nle-a-f-OH] ([pGlu]RPRLS[dA]KGP[dNle][dA][dF]-OH)	8.07	> 16.7
CCCC[C@@H](NC(=O)[C@@H]1CCCN1C(=O)CNC(=O)[C@H](CCCCN)NC(=O)[C@H](Cc1c[nH]cn1)NC(=O)[C@@H](CCC)NC(=O)[C@H](CC(C)C)NC(=O)[C@H](CCCNC(=N)N)NC(=O)[C@@H]1CCCN1C(=O)[C@H](CCCNC(=N)N)NC(=O)[C@@H]1CCC(=O)N1)C(=O)N[C@H](C)C(=O)N[C@H](Cc1ccccc1)C(=O)O [Example 52, pE-R-P-R-L-nva-H-K-G-P-nle-a-f-OH] ([pGlu]RPRL[dNva]HKGP[dNle][dA][dF]-OH)	7.71	> 16.7
CCC[C@@H](NC(=O)[C@@H]1CCCN1C(=O)CNC(=O)[C@H](CCCCN)NC(=O)[C@H](Cc1c[nH]cn1)NC(=O)[C@@H](C)NC(=O)[C@H](CC(C)C)NC(=O)[C@H](CCCNC(=N)N)NC(=O)[C@@H]1CCCN1C(=O)[C@H](CCCNC(=N)N)NC(=O)[C@@H]1CCC(=O)N1)C(=O)N[C@H](C)C(=O)N[C@H](Cc1ccccc1)C(=O)O [Example 53, pE-R-P-R-L-a-H-K-G-P-nva-a-f-OH] ([pGlu]RPRL[dA]HKGP[dNva][dA][dF]-OH)	8.06	> 16.7
CCCC[C@@H](NC(=O)[C@@H]1CCCN1C(=O)CNC(=O)[C@H](CCCCN)NC(=O)[C@@H](Cc1ccccc1)NC(=O)[C@H](CO)NC(=O)[C@H](CC(C)C)NC(=O)[C@H](CCCNC(=N)N)NC(=O)[C@@H]1CCCN1C(=O)[C@H](CCCNC(=N)N)NC(=O)[C@@H]1CCC(=O)N1)C(=O)N[C@H](C)C(=O)N[C@H](Cc1ccccc1)C(=O)O [Example 55, pE-R-P-R-L-S-f-K-G-P-nle-a-f-OH] ([pGlu]RPRLS[dF]KGP[dNle][dA][dF]-OH)	7.14	1.68
CCCC[C@@H](NC(=O)[C@@H]1CCCN1C(=O)CNC(=O)[C@H](CCCCN)NC(=O)[C@@H](Cc1c[nH]cn1)NC(=O)[C@H](C)NC(=O)[C@H](CC(C)C)NC(=O)[C@H](CCCNC(=N)N)NC(=O)[C@@H]1CCCN1C(=O)[C@H](CCCNC(=N)N)NC(=O)[C@@H]1CCC(=O)N1)C(=O)N[C@H](C)C(=O)N[C@H](Cc1ccccc1)C(=O)O [Example 58, pE-R-P-R-L-A-h-K-G-P-nle-a-f-OH]	7.26	3.8
CCCC[C@@H](NC(=O)[C@@H]1CCCN1C(=O)CNC(=O)[C@H](CCC(=O)O)NC(=O)[C@H](Cc1c[nH]cn1)NC(=O)[C@@H](C)NC(=O)[C@H](CC(C)C)NC(=O)[C@H](CCCNC(=N)N)NC(=O)[C@@H]1CCCN1C(=O)[C@H](CCCNC(=N)N)NC(=O)[C@@H]1CCC(=O)N1)C(=O)N[C@H](C)C(=O)N[C@H](Cc1ccccc1)C(=O)O [Example 60, pE-R-P-R-L-a-H-E-G-P-nle-a-f-OH] ([pGlu]RPRL[dA]HEGP[dNle][dA][dF]-OH)	6.70	> 16.7
CCCC[C@@H](NC(=O)[C@@H]1CCCN1C(=O)[C@H](CC(=O)O)NC(=O)[C@H](CCCCN)NC(=O)[C@H](Cc1c[nH]cn1)NC(=O)[C@@H](C)NC(=O)[C@H](CC(C)C)NC(=O)[C@H](CCCNC(=N)N)NC(=O)[C@@H]1CCCN1C(=O)[C@H](CCCNC(=N)N)NC(=O)[C@@H]1CCC(=O)N1)C(=O)N[C@H](C)C(=O)N[C@H](Cc1ccccc1)C(=O)O [Example 62, pE-R-P-R-L-a-H-K-D-P-nle-a-f-OH] ([pGlu]RPRL[dA]HKDP[dNle][dA][dF]-OH)	7.02	7.9
CCCC[C@@H](NC(=O)[C@@H]1CCCN1C(=O)CNC(=O)[C@H](CCCCN)NC(=O)[C@H](Cc1c[nH]cn1)NC(=O)[C@@H](CCC)NC(=O)[C@H](CC1CCCCC1)NC(=O)[C@H](CCCNC(=N)N)NC(=O)[C@@H]1CCCN1C(=O)[C@H](CCCNC(=N)N)NC(=O)[C@@H]1CCC(=O)N1)C(=O)N[C@H](C)C(=O)N[C@H](Cc1ccccc1)C(=O)O [Example 63, pE-R-P-R-Cha-nva-H-K-G-P-nle-a-f-OH] ([pGlu]RPR[Cha][dNva]HKGP[dNle][dA][dF]-OH)	8.03	3.75

Now those with a higher pEC50 (hAPJ), led by results:

pEC50 (hAPJ)	half-life [1] [h]	SMILES
8.36	> 16.7	CCCC[C@@H](NC(=O)[C@@H]1CCCN1C(=O)CNC(=O)[C@H](CCCCN)NC(=O)[C@H](CC(C)C)NC(=O)[C@@H](C)NC(=O)[C@H](CC(C)C)NC(=O)[C@H](CCCNC(=N)N)NC(=O)[C@@H]1CCCN1C(=O)[C@H](CCCNC(=N)N)NC(=O)[C@@H]1CCC(=O)N1)C(=O)N[C@H](C)C(=O)N[C@H](Cc1ccccc1)C(=O)O [Example 47, pE-R-P-R-L-a-L-K-G-P-nle-a-f-OH] ([pGlu]RPRL[dA]LKGP[dNle][dA][dF]-OH)
8.85	0.183	CCCC[C@@H](NC(=O)[C@@H]1CCCN1C(=O)CNC(=O)[C@H](CCCCN)NC(=O)[C@H](Cc1c[nH]cn1)NC(=O)[C@@H](C)NC(=O)[C@H](CC(C)C)NC(=O)[C@H](CCCNC(=N)N)NC(=O)[C@@H]1CCCN1C(=O)[C@@H](N)CCCNC(=N)N)C(=O)N[C@H](Cc1ccccc1)C(=O)O [Example 50, H-R-P-R-L-a-H-K-G-P-nle-f-OH] (H-RPRL[dA]HKGP[dNle][dF]-OH)
9.05	15	CCCC[C@@H](NC(=O)[C@@H]1CCCN1C(=O)CNC(=O)[C@H](CCCCN)NC(=O)[C@H](Cc1c[nH]cn1)NC(=O)[C@@H](C)NC(=O)[C@H](CC(C)C)NC(=O)[C@H](CCCNC(=N)N)NC(=O)[C@@H]1CCCN1C(=O)[C@H](CCCNC(=N)N)NC(=O)[C@@H]1CCC(=O)N1)C(=O)N[C@H](CCC)C(=O)N[C@H](Cc1ccccc1)C(=O)O [Example 54, pE-R-P-R-L-a-H-K-G-P-nle-nva-f-OH] ([pGlu]RPRL[dA]HKGP[dNle][dNva][dF]-OH)
8.17	5.52	CCCC[C@@H](NC(=O)[C@@H]1CCCN1C(=O)CNC(=O)[C@H](CCCCN)NC(=O)[C@@H](Cc1c[nH]cn1)NC(=O)[C@H](CO)NC(=O)[C@H](CC(C)C)NC(=O)[C@H](CCCNC(=N)N)NC(=O)[C@@H]1CCCN1C(=O)[C@H](CCCNC(=N)N)NC(=O)[C@@H]1CCC(=O)N1)C(=O)N[C@H](C)C(=O)N[C@H](Cc1ccccc1)C(=O)O [Example 56, pE-R-P-R-L-S-h-K-G-P-nle-a-f-OH] ([pGlu]RPRLS[dH]KGP[dNle][dA][dF]-OH)
8.82	> 16.7	CC(C)C[C@H](NC(=O)[C@H](CCCNC(=N)N)NC(=O)[C@@H]1CCCN1C(=O)[C@H](CCCNC(=N)N)NC(=O)[C@@H]1CCC(=O)N1)C(=O)N[C@H](C)C(=O)N[C@@H](Cc1c[nH]cn1)C(=O)N[C@@H](CCCCN)C(=O)NCC(=O)N1CCC[C@H]1C(=O)N[C@H](Cc1ccccc1)C(=O)N[C@H](C)C(=O)N[C@H](Cc1ccccc1)C(=O)O [Example 57, pE-R-P-R-L-a-H-K-G-P-f-a-f-OH] ([pGlu]RPRL[dA]HKGP[dF][dA][dF]-OH)
8.13	14.2	CCCC[C@@H](NC(=O)[C@@H]1CCCN1C(=O)CNC(=O)[C@H](CCC(N)=O)NC(=O)[C@H](Cc1c[nH]cn1)NC(=O)[C@@H](C)NC(=O)[C@H](CC(C)C)NC(=O)[C@H](CCCNC(=N)N)NC(=O)[C@@H]1CCCN1C(=O)[C@H](CCCNC(=N)N)NC(=O)[C@@H]1CCC(=O)N1)C(=O)N[C@H](C)C(=O)N[C@H](Cc1ccccc1)C(=O)O [Example 59, pE-R-P-R-L-a-H-Q-G-P-nle-a-f-OH] ([pGlu]RPRL[dA]HQGP[dNle][dA][dF]-OH)
8.10	> 16.7	CCCC[C@@H](NC(=O)[C@@H]1CCCN1C(=O)CNC(=O)[C@H](CCCCN)NC(=O)[C@H](Cc1c[nH]cn1)NC(=O)[C@H](NC(=O)[C@H](CC(C)C)NC(=O)[C@H](CCCNC(=N)N)NC(=O)[C@@H]1CCCN1C(=O)[C@H](CCCNC(=N)N)NC(=O)[C@@H]1CCC(=O)N1)C(C)C)C(=O)N[C@H](C)C(=O)N[C@H](Cc1ccccc1)C(=O)O [Example 61, pE-R-P-R-L-v-H-K-G-P-nle-a-f-OH] ([pGlu]RPRL[dV]HKGP[dNle][dA][dF]-OH)
